Data set [1] can be described thus: Solubility in water-insoluble recrystallization solvents (statement). Type of data set: physicochemical. The settings on record: water-insoluble solvent other than alicyclic or aliphatic hydrocarbons; in words.
Data set [2] is described as follows: Solubility in cyclohexane (Table 2). Type of data set: physicochemical. The settings on record: for Solubility: cyclohexane.

The structures appear in SMILES notation.

Here are results for two molecules from patent publication US4845244A, “Production of hydroxyphenylpropionic acid ester having a novel crystalline structure” (Sumitomo Chemical Company, Limited, priority 1985, dated 1989).

For `Cc1cc(CCC(=O)OCC(C)(C)C2OCC3(CO2)COC(C(C)(C)COC(=O)CCc2cc(C)c(O)c(C(C)(C)C)c2)OC3)cc(C(C)(C)C)c1O` (stereo not drawn) [α.eta.-Crystal, 3,9-bis{2-[3-(3-tert-butyl-4-hydroxy-5-methylphenyl)propionyloxy]-1,1-dimethylethyl}-2,4,8,10-tetraoxaspiro[5.5]undecane], the “solubility of the αβ-crystals in water-insoluble solvent” value in data set [1] is “so high that the δ-crystals containing substantially no αβ-crystals can be obtained even at room temperature”. Besides, the Solubility is reported as 0.2 g/100 g cyclohexane in data set [2] (20 °C); 0.5 g/100 g cyclohexane in data set [2] (30 °C); 1.4 g/100 g cyclohexane in data set [2] (40 °C); 4.1 g/100 g cyclohexane in data set [2] (50 °C); 8.5 g/100 g cyclohexane in data set [2] (55 °C); greater than 60 g/100 g cyclohexane in data set [2] (60 °C).
Take `Cc1cc(CCC(=O)OCC(C)(C)C2OCC3(CO2)COC(C(C)(C)COC(=O)CCc2cc(C)c(O)c(C(C)(C)C)c2)OC3)cc(C(C)(C)C)c1O` (centres unmarked) [δ-Crystal, 3,9-bis{2-[3-(3-tert-butyl-4-hydroxy-5-methylphenyl)propionyloxy]-1,1-dimethylethyl}-2,4,8,10-tetraoxaspiro[5.5]undecane]: the Solubility turned out to be 0.06 g/100 g cyclohexane in data set [2] (20 °C); 0.1 g/100 g cyclohexane in data set [2] (30 °C); 0.2 g/100 g cyclohexane in data set [2] (40 °C); 0.5 g/100 g cyclohexane in data set [2] (50 °C); 1.1 g/100 g cyclohexane in data set [2] (55 °C); 2.1 g/100 g cyclohexane in data set [2] (60 °C). Besides, in data set [2] (in words, refers to Table 2), the “solubility compared with αβ-crystals” value is reported as “lower solubility than that of the αβ-crystals”.
